Experiment: mean ionic activity coefficient (dimensionless); mn = molality of the nth substance listed, in mol/kg
Settings: 298.2 K, 101 kPa, Liquid, potentionmetric method

[Cl-].[Na+] [sodium chloride] + O
Settings	mean ionic activity coefficient
m1 = 0.001	0.965
m1 = 0.0101	0.902
m1 = 0.0502	0.82
m1 = 0.0993	0.777
m1 = 0.2495	0.718
m1 = 0.4993	0.68
m1 = 0.7496	0.663
m1 = 0.9996	0.655
m1 = 1.249	0.654
m1 = 1.5	0.656
m1 = 1.749	0.66
m1 = 1.999	0.667
m1 = 2.499	0.687
m1 = 3	0.713

From the NIST ThermoML archive (doi:10.1016/j.fluid.2014.07.002)
